Here are results for 18 compounds from patent publication US11168083B2, “Inhibitors of Plasma Kallikrein and uses thereof” (Takeda Pharmaceutical Company Limited, priority 2017, dated 2021).

The structures appear in SMILES notation.

human activated kallikrein enzyme, sequence (P03952 391-638): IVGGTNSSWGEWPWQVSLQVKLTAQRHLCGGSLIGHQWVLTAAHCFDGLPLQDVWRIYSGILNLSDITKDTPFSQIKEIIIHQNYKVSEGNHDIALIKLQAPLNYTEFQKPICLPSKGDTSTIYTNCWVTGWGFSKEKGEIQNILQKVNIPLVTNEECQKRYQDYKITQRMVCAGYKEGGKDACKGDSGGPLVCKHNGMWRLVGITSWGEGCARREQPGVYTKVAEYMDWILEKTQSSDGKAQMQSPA
human activated kallikrein enzyme, sequence (P03952 20-390 partner): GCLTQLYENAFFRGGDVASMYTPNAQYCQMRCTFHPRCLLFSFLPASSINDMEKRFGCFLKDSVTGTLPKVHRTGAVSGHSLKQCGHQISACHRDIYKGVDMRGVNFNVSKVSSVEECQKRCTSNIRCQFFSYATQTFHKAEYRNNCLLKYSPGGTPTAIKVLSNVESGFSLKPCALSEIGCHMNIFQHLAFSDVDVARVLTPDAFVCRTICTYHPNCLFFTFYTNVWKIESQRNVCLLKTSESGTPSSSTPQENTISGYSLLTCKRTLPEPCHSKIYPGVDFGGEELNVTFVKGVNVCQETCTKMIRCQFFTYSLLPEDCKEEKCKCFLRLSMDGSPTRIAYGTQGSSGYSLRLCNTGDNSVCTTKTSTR

The test deals with human activated kallikrein enzyme (Homo sapiens (Human), UniProt P03952). Nature of the test: Inhibition of human activated kallikrein enzyme, fluorogenic peptide substrate assay (two formats). It counts as biochemical. Particulars: Table 2; column head prints nM, ranges defined in μM; read-out: pKal EC50. On the procedure:
The example compounds were evaluated for inhibition of the human activated kallikrein enzyme in two formats of an assay employing a fluorogenic peptide substrate. In one assay format, the concentrations of reagents were as follows: 20 mM Tris pH 7.5, 1 mM EDTA, 150 mM sodium chloride, 0.1% PEG-400, 0.1% Triton X-100, 500 pM activated kallikrein enzyme, 300 uM Pro-Phe-Arg-7-amido-4-methylcoumarin substrate. Prior to reaction initiation with substrate, enzyme and inhibitors were preincubated for 30 min at room temperature. After initiation with substrate, reactions were incubated for 10 min at room temperature and fluorescence emission at 460 nm from 380 nm excitation measured with a microplate reader. In another assay format, the concentrations of reagents were as follows: 20 mM Tris pH 7.5, 1 mM EDTA, 150 mM sodium chloride, 0.1% PEG-400, 0.1% Triton X-100, 5 pM activated kallikrein enzyme, 300 uM Pro-Phe-Arg-7-amido-4-methylcoumarin substrate. Prior to reaction initiation with substrate, enzyme and inhibitors were preincubated for 30 min at room temperature. After initiation with substrate, reactions were incubated for 18 hr at room temperature and fluorescence emission at 460 nm from 380 nm excitation measured with a microplate reader.
On to `CNC(=O)[C@H](CCCCNC(=N)N)NC(=O)c1csc([C@H]2C[C@@H](N)CN2C(=O)c2cn3cc(Cl)ccc3n2)n1` [Compound 1, 2-((2R,4R)-4-amino-1-(6-chloroimidazo[1,2-a]pyridine-2-carbonyl)pyrrolidin-2-yl)-N—((S)-6-guanidino-1-(methylamino)-1-oxohexan-2-yl)thiazole-4-carboxamide], for which the EC50 (as a rule, the midpoint of the concentration-response curve) was in the range of 1000 to 5000 nM.

`CNC(=O)[C@@H](CCCCNC(=N)N)NC(=O)c1csc([C@H]2C[C@@H](N)CN2C(=O)c2cn3cc(Cl)ccc3n2)n1` [Compound 2, 2-((2R,4R)-4-amino-1-(6-chloroimidazo[1,2-a]pyridine-2-carbonyl)pyrrolidin-2-yl)-N—((R)-6-guanidino-1-(methylamino)-1-oxohexan-2-yl)thiazole-4-carboxamide]: the EC50 was more than 9900 nM.

Take `CNC(=O)[C@H](CCCCNC(=N)N)NC(=O)c1csc([C@H]2CCCN2C(=O)c2cn3cc(Cl)ccc3n2)n1` [Compound 3, 2-((R)-1-(6-Chloroimidazo[1,2-a]pyridine-2-carbonyl)pyrrolidin-2-yl)-N—((S)-6-guanidino-1-(methylamino)-1-oxohexan-2-yl)thiazole-4-carboxamide]: the EC50 was more than 9900 nM.

`CNC(=O)[C@@H](CCCCNC(=N)N)NC(=O)c1csc([C@H]2CCCN2C(=O)c2cn3cc(Cl)ccc3n2)n1` [Compound 4, 2-((R)-1-(6-Chloroimidazo[1,2-a]pyridine-2-carbonyl)pyrrolidin-2-yl)-N—((R)-6-guanidino-1-(methylamino)-1-oxohexan-2-yl)thiazole-4-carboxamide]: the EC50 was more than 9900 nM.

Turning to `CNC(=O)[C@H](CCCCNC(=N)N)NC(=O)c1csc([C@H]2C[C@@H](NC(C)=O)CN2C(=O)c2cn3cc(Cl)ccc3n2)n1` [Compound 5, 2-((2R,4R)-4-acetamido-1-(6-chloroimidazo[1,2-a]pyridine-2-carbonyl)pyrrolidin-2-yl)-N—((S)-6-guanidino-1-(methylamino)-1-oxohexan-2-yl)thiazole-4-carboxamide], the EC50 was more than 9900 nM.

Turning to `CNC(=O)[C@H](CCCCNC(=N)N)NC(=O)c1csc([C@H]2C[C@H](N)CN2C(=O)c2cn3cc(Cl)ccc3n2)n1` [Compound 6, 2-((2R,4S)-4-amino-1-(6-chloroimidazo[1,2-a]pyridine-2-carbonyl)pyrrolidin-2-yl)-N—((S)-6-guanidino-1-(methylamino)-1-oxohexan-2-yl)thiazole-4-carboxamide], the EC50 is 1000 to 5000 nM.

As to `CNC(=O)[C@H](CCCCNC(=N)N)NC(=O)c1csc([C@H]2C[C@H](O)CN2C(=O)c2cn3cc(Cl)ccc3n2)n1` [Compound 7, 2-((2R,4S)-1-(6-Chloroimidazo[1,2-a]pyridine-2-carbonyl)-4-hydroxypyrrolidin-2-yl)-N—((S)-6-guanidino-1-(methylamino)-1-oxohexan-2-yl)thiazole-4-carboxamide], the concentration giving a half-maximal response (EC50) was more than 9900 nM.

Regarding `CNC(=O)[C@@H](CCCCNC(=N)N)NC(=O)c1csc([C@H]2C[C@H](O)CN2C(=O)c2cn3cc(Cl)ccc3n2)n1` [Compound 8, 2-((2R,4S)-1-(6-Chloroimidazo[,1,2-a]pyridine-2-carbonyl)-4-hydroxypyrrolidin-2-yl)-N—((R)-6-guanidino-1-(methylamino)-1-oxohexan-2-yl)thiazole-4-carboxamide], the EC50 is more than 9900 nM.

`CNC(=O)[C@H](CCCCNC(=N)N)NC(=O)c1csc([C@H]2C[C@@H](O)CN2C(=O)c2cn3cc(Cl)ccc3n2)n1` [Compound 9, 2-((2R,4R)-1-(6-Chloroimidazo[1,2-a]pyridine-2-carbonyl)-4-hydroxypyrrolidin-2-yl)-N—((S)-6-guanidino-1-(methylamino)-1-oxohexan-2-yl)thiazole-4-carboxamide]: the EC50 was more than 9900 nM.

In the case of `CNC(=O)[C@@H](CCCCNC(=N)N)NC(=O)c1csc([C@H]2C[C@@H](O)CN2C(=O)c2cn3cc(Cl)ccc3n2)n1` [Compound 10, 2-((2R,4R)-1-(6-Chloroimidazo[1,2-a]pyridine-2-carbonyl)-4-hydroxypyrrolidin-2-yl)-N—((R)-6-guanidino-1-(methylamino)-1-oxohexan-2-yl)thiazole-4-carboxamide], the EC50 was more than 9900 nM.

On to `CNC(=O)[C@@H](CCCCNC(=N)N)NC(=O)c1csc([C@@H]2C[C@@H](N)CN2C(=O)c2cn3cc(Cl)ccc3n2)n1` [Compound 12, 2-((2S,4R)-4-amino-1-(6-chloroimidazo[1,2-a]pyridine-2-carbonyl)pyrrolidin-2-yl)-N—((R)-6-guanidino-1-(methylamino)-1-oxohexan-2-yl)thiazole-4-carboxamide], for which the EC50 is not above 100 nM.

`CNC(=O)[C@H](CCCCNC(=N)N)NC(=O)c1csc([C@@H]2C[C@@H](N)CN2C(=O)c2cn3ccccc3n2)n1` [Compound 13, 2-((2S,4R)-4-amino-1-(imidazo[1,2-a]pyridine-2-carbonyl)pyrrolidin-2-yl)-N—((S)-6-guanidino-1-(methylamino)-1-oxohexan-2-yl)thiazole-4-carboxamide]: the EC50 lay in the range of 100 to 1000 nM.

Regarding `CNC(=O)[C@H](CCCCNC(=N)N)NC(=O)c1csc([C@@H]2C[C@@H](N)CN2C(=O)c2cn(C)c(C)n2)n1` [Compound 14, 2-((2S,4R)-4-amino-1-(1,2-dimethyl-1H-imidazole-4-carbonyl)pyrrolidin-2-yl)-N—((S)-6-guanidino-1-(methylamino)-1-oxohexan-2-yl)thiazole-4-carboxamide], the EC50 was more than 9900 nM.

Take `CNC(=O)[C@H](CCCCNC(=N)N)NC(=O)c1csc([C@@H]2C[C@@H](N)CN2C(=O)c2ccccc2)n1` [Compound 15, 2-((2S,4R)-4-amino-1-benzoylpyrrolidin-2-yl)-N—((S)-6-guanidino-1-(methylamino)-1-oxohexan-2-yl)thiazole-4-carboxamide]: the EC50 is more than 9900 nM.

Consider `CNC(=O)[C@H](CCCCNC(=N)N)NC(=O)c1csc([C@@H]2C[C@@H](N)CN2C(=O)OCc2cccc(Cl)c2)n1` [Compound 16, 3-chlorobenzyl (2S,4R)-4-amino-2-(4-(((S)-6-guanidino-1-(methylamino)-1-oxohexan-2-yl)carbamoyl)thiazol-2-yl)pyrrolidine-1-carboxylate], for which the EC50 was 1000 to 5000 nM.

With `CNC(=O)[C@H](CCCCNC(=N)N)NC(=O)c1csc([C@@H]2C[C@@H](N)CN2C(=O)C2CCCCC2)n1` [Compound 17, 2-((2S,4R)-4-amino-1-(cyclohexanecarbonyl)pyrrolidin-2-yl)-N—((S)-6-guanidino-1-(methylamino)-1-oxohexan-2-yl)thiazole-4-carboxamide], the EC50 was more than 9900 nM.

`CNC(=O)[C@H](CCCCNC(=N)N)NC(=O)c1csc([C@@H]2C[C@@H](N)CN2C(=O)C(C)C)n1` [Compound 18, 2-((2S,4R)-4-amino-1-isobutyrylpyrrolidin-2-yl)-N—((S)-6-guanidino-1-(methylamino)-1-oxohexan-2-yl)thiazole-4-carboxamide]: the EC50 was more than 9900 nM.

For the compound `CNC(=O)[C@H](CCCCNC(=N)N)NC(=O)c1csc([C@@H]2C[C@@H](N)CN2C(=O)c2cn3cc(C(F)(F)F)ccc3n2)n1` [Compound 19, 2-((2S,4R)-4-amino-1-(6-(trifluoromethyl)imidazo[1,2-a]pyridine-2-carbonyl)pyrrolidin-2-yl)-N—((S)-6-guanidino-1-(methylamino)-1-oxohexan-2-yl)thiazole-4-carboxamide], the EC50 is not above 100 nM.
